According to ChEMBL document CHEMBL1144447, “3-[4-(methylsulfonyl)phenyl]-5-(trifluoromethyl)(2-pyridyl) phenyl ketone as a potent and orally active cyclooxygenase-2 selective inhibitor: synthesis and biological evaluation” (J Med Chem, 2005):
pIC50: −log10 of the molar value.

Key:
Rattus norvegicus [1] = species on record: Rattus norvegicus; assay: animal or person; details: po, read-out: Inhibition
Description: In vivo antiinflammatory potency in rat air pouch model expressed as inhibition of white blood cell infiltration following oral dosage of 5.4 mg/kg (15 mmol)

[2] = target: Prostaglandin G/H synthase 1 (Homo sapiens, UniProt P23219); type: tissue-based, Blood
Prostaglandin G/H synthase 1, sequence (P23219 whole entry): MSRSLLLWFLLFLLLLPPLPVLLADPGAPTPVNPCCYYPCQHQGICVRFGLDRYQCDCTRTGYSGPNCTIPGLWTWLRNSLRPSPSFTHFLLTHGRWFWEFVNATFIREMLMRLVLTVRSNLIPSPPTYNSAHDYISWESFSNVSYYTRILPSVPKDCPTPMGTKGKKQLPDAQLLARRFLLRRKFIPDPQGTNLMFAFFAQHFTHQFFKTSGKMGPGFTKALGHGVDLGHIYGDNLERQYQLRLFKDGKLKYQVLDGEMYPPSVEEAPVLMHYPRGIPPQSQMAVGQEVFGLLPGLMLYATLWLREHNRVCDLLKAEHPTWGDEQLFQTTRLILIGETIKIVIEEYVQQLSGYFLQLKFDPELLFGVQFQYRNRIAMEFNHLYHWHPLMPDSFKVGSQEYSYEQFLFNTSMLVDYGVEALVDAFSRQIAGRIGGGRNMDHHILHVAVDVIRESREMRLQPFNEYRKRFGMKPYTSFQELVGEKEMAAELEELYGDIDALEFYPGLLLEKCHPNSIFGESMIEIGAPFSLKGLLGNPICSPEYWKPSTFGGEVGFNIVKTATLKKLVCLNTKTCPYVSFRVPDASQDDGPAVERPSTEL
Description: In vitro inhibitory concentration against Prostaglandin G/H synthase 1 (COX-1) in human whole blood

Rattus norvegicus [3] = species on record: Rattus norvegicus; assay: animal or person; details: po, read-out: Inhibition; remark: listed apart in the source
Description: In vivo antiinflammatory potency in rat air pouch model expressed as inhibition of PGE-2 production following oral dosage of 5.4 mg/kg (15 mmol)

[4] = target: T1, Prostaglandin G/H synthase 2 (Homo sapiens, UniProt P35354)
T1 sequence (P35354 whole entry): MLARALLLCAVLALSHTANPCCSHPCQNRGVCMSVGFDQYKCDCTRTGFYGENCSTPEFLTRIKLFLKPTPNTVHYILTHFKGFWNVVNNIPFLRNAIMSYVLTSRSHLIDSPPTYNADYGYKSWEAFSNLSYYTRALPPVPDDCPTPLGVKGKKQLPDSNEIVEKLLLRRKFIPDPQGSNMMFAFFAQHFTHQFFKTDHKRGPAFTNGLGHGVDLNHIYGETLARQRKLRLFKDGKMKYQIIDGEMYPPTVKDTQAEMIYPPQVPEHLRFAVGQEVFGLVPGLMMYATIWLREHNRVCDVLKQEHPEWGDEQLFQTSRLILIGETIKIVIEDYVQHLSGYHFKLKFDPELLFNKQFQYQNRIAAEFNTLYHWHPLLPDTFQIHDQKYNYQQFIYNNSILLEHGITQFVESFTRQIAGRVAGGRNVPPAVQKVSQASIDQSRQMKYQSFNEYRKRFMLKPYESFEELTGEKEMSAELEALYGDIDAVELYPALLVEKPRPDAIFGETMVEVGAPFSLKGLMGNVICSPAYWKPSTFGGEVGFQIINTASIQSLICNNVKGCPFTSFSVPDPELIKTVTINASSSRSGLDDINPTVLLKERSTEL
Description: In vitro inhibitory concentration against Prostaglandin G/H synthase 2 (COX-2) in human whole blood

Rattus norvegicus [5] = assay: In vivo antiinflammatory potency in rat air pouch model expressed as inhibition of white blood cell infiltration following oral dosage of 6.1 mg/kg ([…]); type: functional
Rattus norvegicus [6] = assay: In vivo antiinflammatory potency in rat air pouch model expressed as inhibition of PGE-2 production following oral dosage of 6.1 mg/kg ([…]); type: functional

SMILES	inhibition in vivo at 5.4 mg/kg (Rattus norvegicus [1]) [%]	pIC50 [2]	inhibition in vivo at 5.4 mg/kg (Rattus norvegicus [3]) [%]	pIC50 [4]	inhibition in vivo at 6.1 mg/kg (Rattus norvegicus [5]) [%]	inhibition in vivo at 6.1 mg/kg (Rattus norvegicus [6]) [%]
Cc1ccc(-c2ncc(Cl)cc2-c2ccc(S(C)(=O)=O)cc2)cn1 [ETORICOXIB]	45	< 3.70	61	–	–	–
CS(=O)(=O)c1ccc(-c2cc(C(F)(F)F)cnc2C(=O)c2ccccc2)cc1	–	4.85	–	6.60	46.2	58.9
